One assay deals with acute emesis. The settings on record: administered together with dexamethasone and 5-HT3 antagonists; cited from earlier work.
The test system of a further assay is cisplatin-induced emesis. The settings on record: acute and delayed phase, animals; cited from earlier work.
For another assay, the system named is major depression. Particulars: data not conclusive due to high placebo response rate; cited from earlier work.
A further assay has as its target h-NK1 (Homo sapiens, UniProt P25103). The assay is described as follows: Signal transduction (ST), intracellular Ca++ FLIPR, NK1 antagonistic activity. In kind it is cell-based. The settings on record: read-out: pIC50 h-NK1 (converted). On the procedure: (§1) This test evaluates in vitro functional NK1, NK2 and NK3 antagonistic activity. For the measurements of intracellular Ca^++ concentrations the cells were grown on 96-well (black wall/transparent bottom) plates from Costar for 2 days until they reached confluence. The cells were loaded with 2 μM Fluo3 in DMEM containing 0.1% BSA and 2.5 mM probenecid for 1 h at 37° C. They were washed 3× with a Krebs buffer (140 mM NaCl, 1 mM MgCl2×6H2O, 5 mM KCl, 10 mM glucose, 5 mM HEPES; 1.25 mM CaCl2; pH 7.4) containing 2.5 mM probenecid and 0.1% BSA (Ca^++-buffer). The cells were preincubated with a concentration range of antagonists for 20 min at RT and Ca^++-signals after addition of the agonists were measured in a Fluorescence Image Plate Reader (FLIPR from Molecular Devices, Crawley, England). The peak of the Ca^++-transient was considered as the relevant signal and the mean values of corresponding wells were analysed as described below.
(§2) The sigmoidal dose response curves were analysed by computerised curve-fitting, using the GraphPad Program. The EC50-value of a compound is the effective dose showing 50% of maximal effect. For mean curves the response to the agonist with the highest potency was normalised to 100%. For antagonist responses the IC50-value was calculated using non-linear regression. […]

Another assay has as its target T1, h-NK3 (Homo sapiens, UniProt P29371).
T1 sequence (P29371 1-465): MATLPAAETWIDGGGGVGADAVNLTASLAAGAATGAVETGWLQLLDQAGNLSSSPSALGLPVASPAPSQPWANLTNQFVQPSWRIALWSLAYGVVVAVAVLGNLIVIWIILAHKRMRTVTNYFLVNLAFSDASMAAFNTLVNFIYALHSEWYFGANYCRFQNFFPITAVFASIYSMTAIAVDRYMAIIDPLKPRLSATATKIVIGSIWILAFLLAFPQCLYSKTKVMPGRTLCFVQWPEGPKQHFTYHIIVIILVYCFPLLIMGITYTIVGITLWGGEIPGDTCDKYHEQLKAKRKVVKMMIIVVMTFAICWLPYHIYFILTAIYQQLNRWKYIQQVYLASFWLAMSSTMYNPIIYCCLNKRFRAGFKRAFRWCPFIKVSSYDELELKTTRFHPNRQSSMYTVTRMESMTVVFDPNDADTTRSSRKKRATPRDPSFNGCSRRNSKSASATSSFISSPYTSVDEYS
Briefly: Signal transduction (ST), intracellular Ca++ FLIPR, NK3 antagonistic activity. In kind it is cell-based. The settings on record: read-out: pIC50 h-NK3 (converted). Here is the method:
as §1, §2

The target of the next assay is T2, h-NK2 (Homo sapiens, UniProt P21452).
T2 sequence (P21452 1-398): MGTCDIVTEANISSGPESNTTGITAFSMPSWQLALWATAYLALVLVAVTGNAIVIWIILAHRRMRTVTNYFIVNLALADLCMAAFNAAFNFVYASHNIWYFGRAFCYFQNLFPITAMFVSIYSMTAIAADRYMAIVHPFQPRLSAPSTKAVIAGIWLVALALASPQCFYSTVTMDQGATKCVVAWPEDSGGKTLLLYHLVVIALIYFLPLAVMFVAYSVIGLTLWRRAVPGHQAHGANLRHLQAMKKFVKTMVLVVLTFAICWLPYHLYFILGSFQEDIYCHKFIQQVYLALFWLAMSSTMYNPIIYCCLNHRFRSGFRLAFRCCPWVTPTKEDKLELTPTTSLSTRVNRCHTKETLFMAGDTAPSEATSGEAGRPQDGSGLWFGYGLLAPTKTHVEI
The assay is described as follows: Signal transduction (ST), intracellular Ca++ FLIPR, NK2 antagonistic activity. In kind it is cell-based. The settings on record: read-out: pIC50 h-NK2 (converted). On the procedure: as §1, §2

In assay [1] the test system is NK1 agonist-induced vocalisation response. Particulars: guinea-pigs; cited from earlier work.
For another assay, the system named is schizophrenic patients. The settings on record: without affecting negative symptoms; cited from earlier work.
The test system of assay [2] is chemotherapy- and radiation-induced sickness in cancer patients. The settings on record: cited from earlier work; for reduction of the development of delayed emesis: >24 h; for control of the acute emetic phase: first 24 h, either or not associated with dexamethasone.
For the next assay, the system named is dopamine release. Particulars: frontal cortex vs striatum; cited from earlier work.

Sequence of h-NK1 (P25103 whole entry): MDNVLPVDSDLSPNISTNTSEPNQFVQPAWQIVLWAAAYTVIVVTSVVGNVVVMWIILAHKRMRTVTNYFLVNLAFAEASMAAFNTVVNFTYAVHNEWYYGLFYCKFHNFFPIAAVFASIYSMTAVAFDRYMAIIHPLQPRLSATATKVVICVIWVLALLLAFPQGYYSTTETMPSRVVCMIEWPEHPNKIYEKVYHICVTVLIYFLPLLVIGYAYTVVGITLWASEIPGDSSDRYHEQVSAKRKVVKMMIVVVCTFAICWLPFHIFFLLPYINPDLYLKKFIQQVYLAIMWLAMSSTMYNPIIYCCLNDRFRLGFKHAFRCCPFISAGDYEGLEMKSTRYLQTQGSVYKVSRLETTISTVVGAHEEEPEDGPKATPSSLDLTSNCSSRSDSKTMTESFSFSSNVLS

With `C[C@@H](O[C@H]1OCCN(Cc2n[nH]c(=O)[nH]2)[C@H]1c1ccc(F)cc1)c1cc(C(F)(F)F)cc(C(F)(F)F)c1` [aprepitant], the “prevention of acute emesis” value in the assay on acute emesis was “additional effects”. Besides, in the assay with cisplatin-induced emesis, the “inhibition of cisplatin-induced emesis” value was “inhibit not only the acute but also the delayed phase”. Besides, in the assay with major depression, the antidepressant effects entry was “antidepressant effects”.
As for `O=C(c1ccsc1)N1CC(N2CCN(C3CCN(C(=O)c4cc(C(F)(F)F)cc(C(F)(F)F)c4)C(Cc4ccccc4)C3)CC2)C1` (stereo not drawn) [Compound 8], the IC50 at h-NK1 was 204 nM.
Take `Cc1cc(C(=O)N2CC(N3CCN([C@H]4CCN(C(=O)c5cc(C(F)(F)F)cc(C(F)(F)F)c5)[C@H](Cc5ccccc5)C4)CC3)C2)n(C)n1` [Compound 7]: the IC50 is 72.4 nM on h-NK1 and 3470 nM at h-NK3.
In the case of `O=C(c1cc(C(F)(F)F)cc(C(F)(F)F)c1)N1CCC(N2CCN(C3CN(c4cnccn4)C3)CC2)CC1Cc1ccccc1` (stereo not drawn) [Compound 19], the IC50 on h-NK2 is ≥ 10000 nM; on h-NK1, 45.7 nM; on h-NK3 it was ≥ 10000 nM.
On to `CNCCC(Oc1ccc(C(F)(F)F)cc1)c1ccccc1` (stereo not drawn) [fluoxetine], for which, in [1], the “antagonism of NK1 agonist-induced vocalisation response” value (shortened to “antagonism”) was “antagonised”.
Turning to `O=C(c1ccccc1)N1CC(N2CCN(C3CCN(C(=O)c4cc(C(F)(F)F)cc(C(F)(F)F)c4)C(Cc4ccccc4)C3)CC2)C1` (stereo not drawn) [Compound 3], on h-NK1, the IC50 was 19.5 nM.
On to `FC(F)(F)c1cc(CO[C@H]2CCCN[C@H]2c2ccccc2)cc(C(F)(F)F)c1` [L-733,060], for which, in assay [1], the “antagonism” value is “antagonised”.
For the compound `O=C(C1CCOC1)N1CC(N2CCN(C3CCN(C(=O)c4cc(C(F)(F)F)cc(C(F)(F)F)c4)C(Cc4ccccc4)C3)CC2)C1` (stereo not drawn) [Compound 11], the IC50 on h-NK2 is ≥ 10000 nM; at h-NK1 it was 10.5 nM; on h-NK3 it was ≥ 10000 nM.
As to `O=C(c1cccnc1)N1CC(N2CCN([C@H]3CCN(C(=O)c4cc(C(F)(F)F)cc(C(F)(F)F)c4)[C@H](Cc4ccccc4)C3)CC2)C1` [Compound 6], the IC50 on h-NK1 is 49 nM.
For `O=C(C1CC1)N1CC(N2CCN([C@H]3CCN(C(=O)c4cc(C(F)(F)F)cc(C(F)(F)F)c4)[C@H](Cc4ccccc4)C3)CC2)C1` [Compound 10], the IC50 on h-NK1 is 63.1 nM.
For `O=C([C@H]1CCOC1)N1CC(N2CCN([C@H]3CCN(C(=O)c4cc(C(F)(F)F)cc(C(F)(F)F)c4)[C@H](Cc4ccccc4)C3)CC2)C1` [Compound 12], the IC50 at h-NK2 is ≥ 10000 nM; on h-NK1 it was 43.7 nM; at h-NK3, ≥ 10000 nM.
Regarding `CC(C)(C)C(=O)N1CC(N2CCN([C@H]3CCN(C(=O)c4cc(C(F)(F)F)cc(C(F)(F)F)c4)[C@H](Cc4ccccc4)C3)CC2)C1` [Compound 17], the values for the IC50 at h-NK2, on h-NK1 and at h-NK3 were ≥ 10000 nM, 11 nM and 5500 nM, respectively.
The matching figures for `CC(C)(C)OC(=O)N1CCC[C@@H]1C(=O)N1CC(N2CCN([C@H]3CCN(C(=O)c4cc(C(F)(F)F)cc(C(F)(F)F)c4)[C@H](Cc4ccccc4)C3)CC2)C1` [Compound 22]: 5500 nM, 37.2 nM and 1820 nM.
Take `O=C(c1cc(C(F)(F)F)cc(C(F)(F)F)c1)N1CCC(N2CCN(C3CN(S(=O)(=O)c4cccs4)C3)CC2)CC1Cc1ccccc1` (stereo not drawn) [Compound 15]: the results for the IC50 at h-NK2, at h-NK1 and at h-NK3 were 5500 nM, 32.4 nM and 1230 nM, respectively.
On to `CC(=O)N(C)C1(c2ccccc2)CCN(CCC[C@]2(c3ccc(Cl)c(Cl)c3)CCCN(C(=O)c3ccccc3)C2)CC1` [SR142801], for which, in the assay with schizophrenic patients, the antipsychotic activity entry is reported as “antipsychotic activity”.
Regarding `Cc1nccn1CC1CCc2c(c3ccccc3n2C)C1=O` (stereo not drawn) [ondansetron], in assay [2], the “reduction of the development of delayed emesis” value was “poor efficacy” and the “control of the acute emetic phase” value was “effective”.
As for `O=C(c1ccoc1)N1CC(N2CCN([C@H]3CCN(C(=O)c4cc(C(F)(F)F)cc(C(F)(F)F)c4)[C@H](Cc4ccccc4)C3)CC2)C1` [Compound 9], the IC50 on h-NK1 is 55 nM.
On to `CC(C)(C)OC(=O)NC(C)(C)C(=O)N1CC(N2CCN([C@H]3CCN(C(=O)c4cc(C(F)(F)F)cc(C(F)(F)F)c4)[C@H](Cc4ccccc4)C3)CC2)C1` [Compound 13], for which the IC50 on h-NK2 was ≥ 10000 nM; on h-NK1 it was 33.9 nM; on h-NK3, ≥ 10000 nM.
On to `N#Cc1cccc(C(=O)N2CC(N3CCN([C@H]4CCN(C(=O)c5cc(C(F)(F)F)cc(C(F)(F)F)c5)[C@H](Cc5ccccc5)C4)CC3)C2)c1` [Compound 4], for which the IC50 at h-NK1 was 45.7 nM.
Take `Cc1nnsc1C(=O)N1CC(N2CCN([C@H]3CCN(C(=O)c4cc(C(F)(F)F)cc(C(F)(F)F)c4)[C@H](Cc4ccccc4)C3)CC2)C1` [Compound 16]: the IC50 at h-NK2 was ≥ 10000 nM; at h-NK1, 7.41 nM; on h-NK3 it was 4900 nM.
On to `CN(C)CCCN1c2ccccc2CCc2ccccc21` [imipramine], for which the “antagonism” value in assay [1] is recorded as “antagonised”.
Regarding `O=C(c1ccccc1Cl)N1CC(N2CCN([C@H]3CCN(C(=O)c4cc(C(F)(F)F)cc(C(F)(F)F)c4)[C@H](Cc4ccccc4)C3)CC2)C1` [Compound 18], the IC50 at h-NK2 was ≥ 10000 nM; at h-NK1, 10.5 nM; on h-NK3, 4370 nM.
As for `O=C(c1cnccn1)N1CC(N2CCN([C@H]3CCN(C(=O)c4cc(C(F)(F)F)cc(C(F)(F)F)c4)[C@H](Cc4ccccc4)C3)CC2)C1` [Compound 20], the IC50 on h-NK2 was ≥ 10000 nM; at h-NK1, 41.7 nM; at h-NK3 it was 8130 nM.
Consider `CC(C(=O)N1CC(N2CCN([C@H]3CCN(C(=O)c4cc(C(F)(F)F)cc(C(F)(F)F)c4)[C@H](Cc4ccccc4)C3)CC2)C1)c1ccccc1` (stereo partly drawn) [Compound 14], for which the figures for the IC50 on h-NK2, on h-NK1 and at h-NK3 were 3980 nM, 22.9 nM and 631 nM, respectively.
As to `CN1C2CCCC1CC(NC(=O)c1nn(C)c3ccccc13)C2` (stereo not drawn) [granisetron], in assay [2], the “reduction of the development of delayed emesis” value is on record as “poor efficacy” and the “control of the acute emetic phase” value is recorded as “effective”.
Turning to `COc1ccccc1CN[C@H]1CCCN[C@H]1c1ccccc1` [CP-99,994], the “inhibition of cisplatin-induced emesis” value in the assay with cisplatin-induced emesis was “inhibit not only the acute but also the delayed phase”.
Take `COc1ccc(C(C)C)cc1CN[C@H]1C2CCN(CC2)[C@H]1C(c1ccccc1)c1ccccc1` [CJ-11,974, Ezlopitant]: in the assay with acute emesis, the “prevention of acute emesis” value is recorded as “additional effects”.
As for `O=C(c1cc(C(F)(F)F)cc(C(F)(F)F)c1)N1CCC(N2CCN(C3CNC3)CC2)CC1Cc1ccccc1` (stereo not drawn) [Compound 2], on h-NK1, the IC50 was 123 nM.
`COc1ccc(-n2nnnc2C(F)(F)F)cc1CN[C@H]1CCCN[C@H]1c1ccccc1` [(S)-GR205,171]: in the assay on dopamine release, the dopamine release result was “enhance dopamine release in the frontal cortex but not in the striatum”.
As for `O=C(c1ccc(F)c(F)c1)N1CC(N2CCN([C@H]3CCN(C(=O)c4cc(C(F)(F)F)cc(C(F)(F)F)c4)[C@H](Cc4ccccc4)C3)CC2)C1` [Compound 5], at h-NK1, the IC50 was 102 nM.

The values are drawn from US7435736B2, “Substituted 1-piperidin-4-yl-4-azetidin-3-yl-piperazine derivatives and their use as neurokinin antagonists” (Janssen Pharmaceutica, N.V., priority 2002, dated 2008).
